Data from ChEMBL document CHEMBL4507320, “Data for DCP probe NVS-MALT1” (2021).

Assays:
[1] = biological target: Ephrin type-B receptor 1 (Homo sapiens) (UniProt P54762); conditions: Compound concentration 1000.0 nM
[2] = biological target: Mitogen-activated protein kinase 6 (Homo sapiens) (UniProt Q16659); conditions: Compound concentration 1000.0 nM
[3] = biological target: Mitogen-activated protein kinase 3 (Homo sapiens) (UniProt P27361); conditions: Compound concentration 1000.0 nM
[4] = biological target: Serine/threonine-protein kinase TAO3 (Homo sapiens) (UniProt Q9H2K8); conditions: Compound concentration 1000.0 nM
[5] = biological target: Ribosomal protein S6 kinase alpha-1 (Homo sapiens) (UniProt Q15418); conditions: Compound concentration 1000.0 nM
[6] = biological target: Phosphatidylinositol 4,5-bisphosphate 3-kinase catalytic subunit delta isoform (Homo sapiens) (UniProt O00329); conditions: Compound concentration 1000.0 nM
[7] = tested on: Phosphatidylinositol 4,5-bisphosphate 3-kinase catalytic subunit alpha isoform (Homo sapiens), P42336 [H1047Y]; conditions: Compound concentration 1000.0 nM
[8] = biological target: Serine/threonine-protein kinase Sgk2 (Homo sapiens) (UniProt Q9HBY8); conditions: Compound concentration 1000.0 nM
[9] = biological target: Interleukin-1 receptor-associated kinase 3 (Homo sapiens) (UniProt Q9Y616); conditions: Compound concentration 1000.0 nM
[10] = biological target: Muscarinic acetylcholine receptor M4 (Homo sapiens) (UniProt P08173); conditions: Compound concentration 10.0 uM
[11] = biological target: Calcium/calmodulin-dependent protein kinase type II subunit beta (Homo sapiens) (UniProt Q13554); conditions: Compound concentration 1000.0 nM
Calcium/calmodulin-dependent protein kinase type II subunit beta (Homo sapiens), sequence (Q13554 whole entry): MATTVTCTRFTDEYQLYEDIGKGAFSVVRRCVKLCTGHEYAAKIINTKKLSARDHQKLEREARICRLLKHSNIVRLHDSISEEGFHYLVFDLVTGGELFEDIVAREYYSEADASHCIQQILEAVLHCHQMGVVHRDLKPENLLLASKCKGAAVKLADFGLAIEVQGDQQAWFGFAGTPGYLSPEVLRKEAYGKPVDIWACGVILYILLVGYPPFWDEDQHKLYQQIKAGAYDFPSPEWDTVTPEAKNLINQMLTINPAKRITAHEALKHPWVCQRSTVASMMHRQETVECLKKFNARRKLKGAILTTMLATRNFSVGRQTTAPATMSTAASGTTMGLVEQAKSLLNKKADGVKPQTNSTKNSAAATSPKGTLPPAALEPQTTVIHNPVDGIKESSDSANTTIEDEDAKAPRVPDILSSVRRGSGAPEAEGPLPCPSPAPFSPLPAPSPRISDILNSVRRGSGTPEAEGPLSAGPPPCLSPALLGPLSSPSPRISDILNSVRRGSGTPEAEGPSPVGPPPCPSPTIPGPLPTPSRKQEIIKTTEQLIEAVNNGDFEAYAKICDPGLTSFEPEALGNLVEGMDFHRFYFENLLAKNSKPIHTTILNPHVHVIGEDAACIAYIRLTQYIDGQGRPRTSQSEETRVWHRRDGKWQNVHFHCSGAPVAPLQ

[12] = biological target: Serine/threonine-protein kinase PAK 2 (Homo sapiens) (UniProt Q13177); conditions: Compound concentration 1000.0 nM
[13] = biological target: Interleukin-1 receptor-associated kinase 1 (Homo sapiens) (UniProt P51617); conditions: Compound concentration 1000.0 nM
[14] = biological target: Myosin light chain kinase family member 4 (Homo sapiens) (UniProt Q86YV6); conditions: Compound concentration 1000.0 nM
[15] = tested on: Phosphatidylinositol 4,5-bisphosphate 3-kinase catalytic subunit alpha isoform (Homo sapiens), P42336 [E545K]; conditions: Compound concentration 1000.0 nM
[16] = biological target: Cyclin-dependent kinase-like 2 (Homo sapiens) (UniProt Q92772); conditions: Compound concentration 1000.0 nM
Cyclin-dependent kinase-like 2 (Homo sapiens), sequence (Q92772 whole entry): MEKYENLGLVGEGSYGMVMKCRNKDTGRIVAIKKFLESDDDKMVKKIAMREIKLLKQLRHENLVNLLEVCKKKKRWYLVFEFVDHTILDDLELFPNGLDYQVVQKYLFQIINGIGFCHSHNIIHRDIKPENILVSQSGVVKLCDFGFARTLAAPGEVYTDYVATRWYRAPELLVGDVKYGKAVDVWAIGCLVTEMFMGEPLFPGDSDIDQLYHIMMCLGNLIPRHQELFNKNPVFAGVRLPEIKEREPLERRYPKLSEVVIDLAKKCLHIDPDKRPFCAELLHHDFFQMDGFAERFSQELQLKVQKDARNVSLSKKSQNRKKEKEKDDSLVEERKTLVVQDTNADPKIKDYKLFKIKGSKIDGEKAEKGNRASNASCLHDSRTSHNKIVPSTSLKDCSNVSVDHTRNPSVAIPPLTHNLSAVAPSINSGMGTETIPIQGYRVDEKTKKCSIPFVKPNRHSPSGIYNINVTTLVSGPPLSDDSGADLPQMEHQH

[17] = biological target: BMP-2-inducible protein kinase (Homo sapiens) (UniProt Q9NSY1); conditions: Compound concentration 1000.0 nM
BMP-2-inducible protein kinase (Homo sapiens), sequence (Q9NSY1 whole entry, looked up): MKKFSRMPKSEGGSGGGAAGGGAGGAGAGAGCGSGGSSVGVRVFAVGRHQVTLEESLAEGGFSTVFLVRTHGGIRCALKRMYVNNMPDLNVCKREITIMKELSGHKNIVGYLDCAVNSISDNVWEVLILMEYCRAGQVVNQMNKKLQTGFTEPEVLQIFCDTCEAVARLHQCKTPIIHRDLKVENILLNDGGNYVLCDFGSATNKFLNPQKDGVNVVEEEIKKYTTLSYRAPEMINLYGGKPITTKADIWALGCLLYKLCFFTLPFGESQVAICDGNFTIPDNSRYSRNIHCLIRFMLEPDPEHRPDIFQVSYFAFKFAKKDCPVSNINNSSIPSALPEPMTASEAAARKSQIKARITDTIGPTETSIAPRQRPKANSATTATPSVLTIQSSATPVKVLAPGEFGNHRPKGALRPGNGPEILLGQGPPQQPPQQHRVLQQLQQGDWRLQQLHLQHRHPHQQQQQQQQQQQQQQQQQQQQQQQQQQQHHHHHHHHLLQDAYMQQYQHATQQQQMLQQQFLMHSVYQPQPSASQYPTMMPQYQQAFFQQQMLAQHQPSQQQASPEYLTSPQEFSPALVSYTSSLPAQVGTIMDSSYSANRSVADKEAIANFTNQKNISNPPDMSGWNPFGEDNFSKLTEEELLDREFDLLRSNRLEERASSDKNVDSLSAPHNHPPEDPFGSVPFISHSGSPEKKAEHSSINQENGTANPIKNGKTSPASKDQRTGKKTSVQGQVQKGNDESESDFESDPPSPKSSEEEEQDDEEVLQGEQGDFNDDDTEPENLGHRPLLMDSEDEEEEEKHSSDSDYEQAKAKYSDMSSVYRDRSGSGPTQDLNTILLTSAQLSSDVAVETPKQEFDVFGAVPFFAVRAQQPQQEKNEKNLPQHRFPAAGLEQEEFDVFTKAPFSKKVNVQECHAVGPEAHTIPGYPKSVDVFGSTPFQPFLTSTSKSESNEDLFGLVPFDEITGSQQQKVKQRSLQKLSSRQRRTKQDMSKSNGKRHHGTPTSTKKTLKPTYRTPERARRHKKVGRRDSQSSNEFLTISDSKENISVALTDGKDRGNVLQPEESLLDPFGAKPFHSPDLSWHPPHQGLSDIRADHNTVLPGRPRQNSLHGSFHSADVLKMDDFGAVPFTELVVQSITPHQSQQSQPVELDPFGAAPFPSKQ

[18] = biological target: Serine/threonine-protein kinase 32A (Homo sapiens) (UniProt Q8WU08); conditions: Compound concentration 1000.0 nM
[19] = biological target: Dual specificity mitogen-activated protein kinase kinase 6 (Homo sapiens) (UniProt P52564); conditions: Compound concentration 1000.0 nM
[20] = biological target: Serine/threonine-protein kinase 17A (Homo sapiens) (UniProt Q9UEE5); conditions: Compound concentration 1000.0 nM
[21] = biological target: Serine/threonine-protein kinase PknB (Mycobacterium tuberculosis) (UniProt P9WI81); conditions: Compound concentration 1000.0 nM
[22] = biological target: 1-phosphatidylinositol 3-phosphate 5-kinase (Homo sapiens) (UniProt Q9Y2I7); conditions: Compound concentration 1000.0 nM
[23] = biological target: Death-associated protein kinase 2 (Homo sapiens) (UniProt Q9UIK4); conditions: Compound concentration 1000.0 nM
Death-associated protein kinase 2 (Homo sapiens), sequence (Q9UIK4 whole entry, looked up): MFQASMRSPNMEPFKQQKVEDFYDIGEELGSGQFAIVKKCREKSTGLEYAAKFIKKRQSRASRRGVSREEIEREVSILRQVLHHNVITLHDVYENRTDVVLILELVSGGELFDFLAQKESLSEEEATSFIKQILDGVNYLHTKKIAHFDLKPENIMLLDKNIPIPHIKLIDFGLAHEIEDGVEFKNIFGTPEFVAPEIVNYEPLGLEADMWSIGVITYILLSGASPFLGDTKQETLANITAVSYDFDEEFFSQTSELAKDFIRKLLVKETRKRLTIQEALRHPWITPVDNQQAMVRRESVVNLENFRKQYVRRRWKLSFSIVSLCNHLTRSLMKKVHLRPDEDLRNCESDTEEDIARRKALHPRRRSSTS

[24] = biological target: Serine/threonine-protein kinase D1 (Homo sapiens) (UniProt Q15139); conditions: Compound concentration 1000.0 nM
[25] = tested on: Receptor-type tyrosine-protein kinase FLT3 (Homo sapiens), P36888 [D835Y]; conditions: Compound concentration 1000.0 nM
[26] = biological target: cAMP-dependent protein kinase catalytic subunit PRKX (Homo sapiens) (UniProt P51817); conditions: Compound concentration 1000.0 nM
[27] = biological target: Myosin light chain kinase (Homo sapiens) (UniProt Q32MK0); conditions: Compound concentration 1000.0 nM
[28] = biological target: Serine/threonine-protein kinase WNK1 (Homo sapiens) (UniProt Q9H4A3); conditions: Compound concentration 1000.0 nM
[29] = biological target: Ephrin type-A receptor 6 (Homo sapiens) (UniProt Q9UF33); conditions: Compound concentration 1000.0 nM
[30] = biological target: MAP/microtubule affinity-regulating kinase 3 (Homo sapiens) (UniProt P27448); conditions: Compound concentration 1000.0 nM
[31] = biological target: Serine/threonine-protein kinase ICK (Homo sapiens) (UniProt Q9UPZ9); conditions: Compound concentration 1000.0 nM
[32] = biological target: Tyrosine-protein kinase Fyn (Homo sapiens) (UniProt P06241); conditions: Compound concentration 1000.0 nM
Tyrosine-protein kinase Fyn (Homo sapiens), sequence (P06241 2-537 limits assumed): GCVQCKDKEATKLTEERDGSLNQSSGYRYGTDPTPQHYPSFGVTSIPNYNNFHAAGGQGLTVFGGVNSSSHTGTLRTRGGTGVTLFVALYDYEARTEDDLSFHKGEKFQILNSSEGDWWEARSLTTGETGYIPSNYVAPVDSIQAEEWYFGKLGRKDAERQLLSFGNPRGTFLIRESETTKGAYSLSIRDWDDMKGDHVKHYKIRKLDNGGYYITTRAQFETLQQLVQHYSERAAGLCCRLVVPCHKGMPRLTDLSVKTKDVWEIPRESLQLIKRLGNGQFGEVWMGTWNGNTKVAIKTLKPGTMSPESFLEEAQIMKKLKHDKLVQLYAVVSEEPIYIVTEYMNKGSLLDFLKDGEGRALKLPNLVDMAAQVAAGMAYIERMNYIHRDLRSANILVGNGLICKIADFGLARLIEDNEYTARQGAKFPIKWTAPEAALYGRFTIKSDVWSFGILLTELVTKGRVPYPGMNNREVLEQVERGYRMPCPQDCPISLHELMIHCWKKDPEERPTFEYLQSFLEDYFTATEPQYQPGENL

[33] = biological target: Mitogen-activated protein kinase kinase kinase 14 (Homo sapiens) (UniProt Q99558); conditions: Compound concentration 1000.0 nM
[34] = biological target: Peripheral plasma membrane protein CASK (Homo sapiens) (UniProt O14936); conditions: Compound concentration 1000.0 nM
[35] = biological target: Dual specificity protein kinase CLK3 (Homo sapiens) (UniProt P49761); conditions: Compound concentration 1000.0 nM
Dual specificity protein kinase CLK3 (Homo sapiens), sequence (P49761 whole entry, looked up): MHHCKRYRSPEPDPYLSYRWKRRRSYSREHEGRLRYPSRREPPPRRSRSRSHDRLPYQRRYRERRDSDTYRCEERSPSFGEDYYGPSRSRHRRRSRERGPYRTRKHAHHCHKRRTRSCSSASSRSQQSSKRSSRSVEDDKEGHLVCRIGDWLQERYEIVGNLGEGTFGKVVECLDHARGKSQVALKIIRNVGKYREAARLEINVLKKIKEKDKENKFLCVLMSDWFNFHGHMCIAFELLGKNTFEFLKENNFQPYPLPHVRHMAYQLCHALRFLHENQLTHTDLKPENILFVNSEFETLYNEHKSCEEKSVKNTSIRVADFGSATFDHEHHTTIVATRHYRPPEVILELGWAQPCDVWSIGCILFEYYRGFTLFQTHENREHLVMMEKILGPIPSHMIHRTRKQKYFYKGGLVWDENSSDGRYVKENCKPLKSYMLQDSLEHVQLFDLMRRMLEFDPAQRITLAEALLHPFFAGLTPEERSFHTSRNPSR

[36] = biological target: Interleukin-1 receptor-associated kinase 4 (Homo sapiens) (UniProt Q9NWZ3); conditions: Compound concentration 1000.0 nM
[37] = biological target: Tyrosine-protein kinase Fes/Fps (Homo sapiens) (UniProt P07332); conditions: Compound concentration 1000.0 nM
[38] = tested on: Serine/threonine-protein kinase B-raf (Homo sapiens), P15056 [V600E]; conditions: Compound concentration 1000.0 nM
[39] = biological target: Phosphatidylinositol 4-kinase beta (Homo sapiens) (UniProt Q9UBF8); conditions: Compound concentration 1000.0 nM
[40] = biological target: Serine/threonine-protein kinase PLK4 (Homo sapiens) (UniProt O00444); conditions: Compound concentration 1000.0 nM
[41] = biological target: Serine/threonine-protein kinase Nek10 (Homo sapiens) (UniProt Q6ZWH5); conditions: Compound concentration 1000.0 nM
[42] = biological target: Calcium/calmodulin-dependent protein kinase type 1 (Homo sapiens) (UniProt Q14012); conditions: Compound concentration 1000.0 nM
[43] = biological target: Serine/threonine-protein kinase TAO2 (Homo sapiens) (UniProt Q9UL54); conditions: Compound concentration 1000.0 nM
Serine/threonine-protein kinase TAO2 (Homo sapiens), sequence (Q9UL54 whole entry): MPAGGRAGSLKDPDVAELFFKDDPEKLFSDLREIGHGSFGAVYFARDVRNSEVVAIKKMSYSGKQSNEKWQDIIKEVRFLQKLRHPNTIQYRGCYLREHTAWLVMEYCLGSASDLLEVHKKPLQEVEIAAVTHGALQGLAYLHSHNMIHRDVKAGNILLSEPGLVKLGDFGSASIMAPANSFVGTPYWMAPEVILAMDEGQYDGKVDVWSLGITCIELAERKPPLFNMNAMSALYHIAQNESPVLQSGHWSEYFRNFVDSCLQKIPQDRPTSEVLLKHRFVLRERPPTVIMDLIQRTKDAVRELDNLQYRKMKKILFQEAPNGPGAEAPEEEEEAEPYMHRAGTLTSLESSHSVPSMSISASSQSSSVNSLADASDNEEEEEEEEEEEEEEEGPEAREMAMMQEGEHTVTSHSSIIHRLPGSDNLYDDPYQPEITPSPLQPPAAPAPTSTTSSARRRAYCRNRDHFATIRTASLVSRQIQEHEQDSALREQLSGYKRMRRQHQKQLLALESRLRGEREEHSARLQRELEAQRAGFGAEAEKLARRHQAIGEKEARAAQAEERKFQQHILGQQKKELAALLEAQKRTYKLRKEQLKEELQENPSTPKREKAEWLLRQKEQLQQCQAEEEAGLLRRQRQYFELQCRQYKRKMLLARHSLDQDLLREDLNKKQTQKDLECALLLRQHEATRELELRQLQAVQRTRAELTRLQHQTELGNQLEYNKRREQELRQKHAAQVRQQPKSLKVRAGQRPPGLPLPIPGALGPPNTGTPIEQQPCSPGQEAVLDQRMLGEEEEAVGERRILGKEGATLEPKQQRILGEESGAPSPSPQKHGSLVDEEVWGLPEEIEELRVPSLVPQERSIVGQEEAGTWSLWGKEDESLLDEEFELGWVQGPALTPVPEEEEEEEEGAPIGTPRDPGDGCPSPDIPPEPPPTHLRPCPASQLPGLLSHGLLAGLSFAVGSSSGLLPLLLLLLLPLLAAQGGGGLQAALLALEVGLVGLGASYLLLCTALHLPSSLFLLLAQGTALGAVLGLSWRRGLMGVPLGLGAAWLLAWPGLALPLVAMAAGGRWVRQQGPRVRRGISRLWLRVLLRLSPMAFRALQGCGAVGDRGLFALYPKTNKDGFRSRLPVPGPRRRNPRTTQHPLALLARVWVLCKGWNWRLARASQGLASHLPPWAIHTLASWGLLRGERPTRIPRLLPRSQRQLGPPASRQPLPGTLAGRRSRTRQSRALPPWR

[44] = biological target: Serine/threonine-protein kinase VRK2 (Homo sapiens) (UniProt Q86Y07); conditions: Compound concentration 1000.0 nM
[45] = biological target: Serine/threonine-protein kinase 24 (Homo sapiens) (UniProt Q9Y6E0); conditions: Compound concentration 1000.0 nM

`CO[C@@H](C)c1c(Nc2ccc([C@H](N(C)C(=O)C3CCS(=O)(=O)CC3)C(F)(F)F)cc2)cnc2cc(Cl)nn12` [NVS-MALT1] showed a residual activity [1] of 86%, a residual activity [2] of 92% and a residual activity [3] of 100%. For the same compound, the residual activity [4] was 100%, the residual activity [5] was 71% and the residual activity [6] was 98%. For the same compound, the residual activity [7] was 62%, the residual activity [8] was 91% and the residual activity [9] was 68%. It also gave an inhibition [10] of 21.3%, a residual activity [11] of 94% and a residual activity [12] of 76%. The residual activity [13] was 93%, the residual activity [14] was 86% and the residual activity [15] was 48%. The residual activity [16] was 90%, the residual activity [17] was 89% and the residual activity [18] was 100%. The residual activity [19] was 91%, the residual activity [20] was 87% and the residual activity [21] was 87%. For the same compound, the residual activity [22] was 54%, the residual activity [23] was 86% and the residual activity [24] was 100%. For the same compound, the residual activity [25] was 59%, the residual activity [26] was 88% and the residual activity [27] was 84%. For the same compound, the residual activity [28] was 100%, the residual activity [29] was 100% and the residual activity [30] was 100%. It also gave a residual activity [31] of 70%, a residual activity [32] of 100% and a residual activity [33] of 94%. For the same compound, the residual activity [34] was 100%, the residual activity [35] was 87% and the residual activity [36] was 88%. For the same compound, the residual activity [37] was 100%, the residual activity [38] was 96% and the residual activity [39] was 82%. For the same compound, the residual activity [40] was 100%, the residual activity [41] was 100% and the residual activity [42] was 66%. For the same compound, the residual activity [43] was 88%, the residual activity [44] was 100% and the residual activity [45] was 83%.

`CO[C@@H](C)c1c(Nc2ccc([C@@H](N(C)C(=O)C3CCS(=O)(=O)CC3)C(F)(F)F)cc2)cnc2cc(Cl)nn12` [NVS-MALT1-C] gave a residual activity [1] of 92%, a residual activity [2] of 91% and a residual activity [3] of 86%. It also gave a residual activity [4] of 100%, a residual activity [5] of 65% and a residual activity [6] of 87%. The residual activity [7] was 52%, the residual activity [8] was 99% and the residual activity [9] was 86%. The inhibition [10] was 21.1%, the residual activity [11] was 96% and the residual activity [12] was 81%. For the same compound, the residual activity [13] was 82%, the residual activity [14] was 83% and the residual activity [15] was 62%. It also gave a residual activity [16] of 88%, a residual activity [17] of 91% and a residual activity [18] of 100%. It also gave a residual activity [19] of 92%, a residual activity [20] of 90% and a residual activity [21] of 100%. The residual activity [22] was 65%, the residual activity [23] was 41% and the residual activity [24] was 100%. The residual activity [25] was 42%, the residual activity [26] was 84% and the residual activity [27] was 87%. The residual activity [28] was 98%, the residual activity [29] was 100% and the residual activity [30] was 100%. For the same compound, the residual activity [31] was 96%, the residual activity [32] was 95% and the residual activity [33] was 90%. It also gave a residual activity [34] of 100%, a residual activity [35] of 87% and a residual activity [36] of 89%. The residual activity [37] was 100%, the residual activity [38] was 85% and the residual activity [39] was 100%. It also gave a residual activity [40] of 100%, a residual activity [41] of 100% and a residual activity [42] of 82%. For the same compound, the residual activity [43] was 94%, the residual activity [44] was 100% and the residual activity [45] was 89%.
